Results taken from publication PMC5771238 (Neuropharmacology, 2017).
Where two headings read alike, the source gives them in different places.

Experiments:
ICR mice = assay: Cannabinoid tetrad tests; assay type: in vivo, mouse; details: for effect on THC's effects on activity, hypothermia, catalepsy / effect on THC's anti-nociceptive effect: 10 mg/kg modulator i.p. 10 min before 30 mg/kg THC; for effect on THC's anti-nociceptive effect: tail flick
CB1 receptor [1] = target: T1, CB1 receptor (Mus musculus, UniProt P47746); assay: biochemical; details: pKB ± SEM
CB1 receptor [2] = target: T1, CB1 receptor
CB1 receptor [3] = target: T1, CB1 receptor; assay: [3H]CP55,940 specific binding
CB1 receptor [4] = target: T1, CB1 receptor; assay: THC-stimulated [35S]GTPγS binding in mouse cerebellar membranes; assay type: biochemical; details: pregnenolone 1 – 10 μM
mice = assay: Feeding in mice; assay type: in vivo, mouse; details: 30 mg/kg; unpublished results
C57/Bl6J mice = assay: THC drug discrimination; assay type: in vivo, mouse; details: for effect on response rates / effect on THC's discriminative stimulus effects / substitution for THC when administered alone: second group; for effect on THC's discriminative stimulus effects: modulators 10 mg/kg, rimonabant 1 mg/kg with 5.6 mg/kg THC
CB1 receptor [5] = target: T1, CB1 receptor; assay: CP55,940-stimulated [35S]GTPγS binding in mouse cerebellar membranes; assay type: biochemical; details: for alpha ± SEM (binding cooperativity with CP55,940) / beta ± SEM (efficacy modifier): allosteric operational model, logKA=−6.6, Emax=100, TA=14, TB=0, n=1, LogKB from [3H]SR141716 binding
[6] = 1 nM [3H]SR141716, allosteric ternary complex model, no GDP
[7] = 3 parameter non-linear regression

T1 sequence (P47746 whole entry): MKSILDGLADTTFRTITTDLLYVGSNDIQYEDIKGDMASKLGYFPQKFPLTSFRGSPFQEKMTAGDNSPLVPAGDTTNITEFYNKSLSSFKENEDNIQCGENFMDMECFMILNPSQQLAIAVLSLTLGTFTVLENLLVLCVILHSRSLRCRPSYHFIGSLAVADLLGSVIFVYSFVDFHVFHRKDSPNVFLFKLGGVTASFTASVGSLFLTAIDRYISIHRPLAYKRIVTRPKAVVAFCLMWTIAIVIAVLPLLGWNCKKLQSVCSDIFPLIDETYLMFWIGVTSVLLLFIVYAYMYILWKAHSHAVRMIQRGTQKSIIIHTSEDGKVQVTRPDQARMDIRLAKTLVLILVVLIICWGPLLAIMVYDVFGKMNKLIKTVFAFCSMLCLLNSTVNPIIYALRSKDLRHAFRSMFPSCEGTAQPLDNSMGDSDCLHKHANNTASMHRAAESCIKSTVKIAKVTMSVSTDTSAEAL

Compound | effect on THC's effects on activity, hypothermia, catalepsy (ICR mice) | effect on THC's anti-nociceptive effect (ICR mice) | logα ± SEM (cooperativity with [3H]SR141716) (CB1 receptor [2]; [6]) | Top ± SEM (maximal increase in specific binding of [3H]CP55,940) (CB1 receptor [3]; [7]) | effect on THC-stimulated [35S]GTPγS binding (CB1 receptor [4]) | effect on response rates (C57/Bl6J mice) | effect on THC's discriminative stimulus effects (C57/Bl6J mice) | alpha ± SEM (binding cooperativity with CP55,940) (CB1 receptor [5]) | beta ± SEM (efficacy modifier) (CB1 receptor [5]) | substitution for THC when administered alone (C57/Bl6J mice) | other results
O=C(Nc1ccc(Cl)cc1)Nc1cccc(-c2cccc(N3CCCC3)n2)c1 [PSNCBAM-1, 1-(4-chlorophenyl)-3-{3-[6-(pyrrolidin-1-yl)pyridin-2-yl]phenyl}urea] | did not alter | decreased THC’s anti-nociceptive effect | −0.73 ± 0.12 | 419.1 ± 8.75 | produced insurmountable antagonism | Neither compound decreased response rates | did not alter THC’s discriminative stimulus effects | 55.01 ± 3.76 | 0.003 ± 0.001 |  | Kb (CB1 receptor [1]; [6]): 0.195 µM; Kb (CB1 receptor [1]; in presence of 30 μM GDP): 1.82 µM; EC50 (CB1 receptor [3]): 0.295 µM; effect on feeding in mice (mice): did not observe an effect; IC50 (CB1 receptor [5]; IC50, at 100 nM CP55,940): 0.0492 µM; IC50 (CB1 receptor [5]; pIC50 ± SEM, CP55,940 10 nM): 0.0832 µM; IC50 (CB1 receptor [5]; pIC50 ± SEM, CP55,940 1 μM): 0.0398 µM; IC50 (CB1 receptor [5]; pIC50 ± SEM, CP55,940 10 μM): 0.0501 µM
N#Cc1ccc(NC(=O)Nc2cccc(-c3cccc(N4CCCC4)n3)c2)cc1 [RTICBM-28] | did not alter | but not RTICBM-15 or RTICBM-28, decreased THC’s anti-nociceptive effect | −1.13 ± 0.18 | 477.5 ± 15.14 | produced insurmountable antagonism | Neither compound decreased response rates | lowered THC potency | 201.1 ± 11.95 | 0.001 ± 0.001 |  | pKB ± SEM (CB1 receptor [2]; [6]): 6.65 ± 0.11; pKB ± SEM (CB1 receptor [2]; in presence of 30 μM GDP): 5.86 ± 0.10; pEC50 ± SEM for increase in specific binding of [3H]CP55,940 (CB1 receptor [3]; [7]): 6.61 ± 0.07; pIC50 ± SEM (CB1 receptor [5]; CP55,940 10 nM): 7.34 ± 0.05; pIC50 ± SEM (CB1 receptor [5]; CP55,940 1 μM): 7.72 ± 0.03; pIC50 ± SEM (CB1 receptor [5]; CP55,940 10 μM): 7.59 ± 0.03
Cc1c(C(=O)NN2CCCCC2)nn(-c2ccc(Cl)cc2Cl)c1-c1ccc(Cl)cc1 [SR141716, rimonabant] |  |  |  |  |  | significantly decreased response rates | blocked THC’s discriminative stimulus effects |  |  | without substituting themselves when administered alone | effect on locomotor activity in combination with THC (ICR mice; 3 mg/kg rimonabant and 30 mg/kg THC): increased activity; reversal of THC-induced antinociception, hypothermia, catalepsy (ICR mice; 3 mg/kg rimonabant i.p. before 30 mg/kg THC): rimonabant-reversible; effect on locomotor activity, anti-nociception, rectal temperature, catalepsy when followed by vehicle injection (ICR mice; 10 mg/kg modulator or 3 mg/kg rimonabant i.p., vs vehicle/vehicle): did not have any effect
CC(=O)[C@H]1CC[C@H]2[C@@H]3CC=C4C[C@@H](O)CC[C@]4(C)[C@H]3CC[C@]12C [pregnenolone] |  |  |  |  |  |  |  |  |  |  | effect on THC's effects in the cannabinoid tetrad (ICR mice; stated in abstract only): did not block THC’s effects; substitution and response rate effects in combination with vehicle (C57/Bl6J mice; first group, compound alone): neither compound produced substitution or response rate effects
CCCCCc1cc(O)c2c(c1)OC(C)(C)[C@@H]1CCC(C)=C[C@@H]21 [THC, delta-9-tetrahydrocannabinol] |  |  |  |  |  |  |  |  |  |  | effect on locomotor activity (ICR mice; THC 30 mg/kg i.p. with vehicle): did not affect locomotor activity; tetrad effects: antinociception, hypothermia, catalepsy (ICR mice; THC 30 mg/kg i.p. with vehicle): produced rimonabant-reversible antinociception (Figure 4B), hypothermia (Figure 4C), and catalepsy (Figure 4D)
CCNC1(C(N)=O)CCN(c2ncnc3c2nc(-c2ccccc2Cl)n3-c2ccc(Cl)cc2)CC1 [otenabant] |  |  |  |  |  | significantly decreased response rates | blocked THC’s discriminative stimulus effects |  |  | without substituting themselves when administered alone | 
